Assay results: the NIST ThermoML archive (doi:10.1021/je900210h)

Settings: Fluid (supercritical or subcritical phases), Coaxial cylinder method

FCC(F)(F)F [1,1,1,2-tetrafluoroethane]
Settings | thermal conductivity [W/m/K]
377.87 K, 4339 kPa | 0.0617
377.87 K, 4470 kPa | 0.0614
377.87 K, 4479 kPa | 0.0606
377.89 K, 4330 kPa | 0.0583
377.89 K, 4518 kPa | 0.0587
377.89 K, 4531 kPa | 0.0582
377.9 K, 4541 kPa | 0.0575
377.9 K, 4551 kPa | 0.057
377.9 K, 4561 kPa | 0.0566
377.9 K, 4582 kPa | 0.0563
377.91 K, 4321 kPa | 0.0557
377.93 K, 4309 kPa | 0.0521
377.93 K, 4800 kPa | 0.0547
377.93 K, 4851 kPa | 0.0547
377.95 K, 4301 kPa | 0.0503
377.96 K, 6000 kPa | 0.0569
377.97 K, 4302 kPa | 0.0487
378.02 K, 4500 kPa | 0.0601
378.05 K, 7003 kPa | 0.0589
378.07 K, 180 kPa | 0.02003
378.07 K, 6502 kPa | 0.058
378.11 K, 5504 kPa | 0.056
378.16 K, 8004 kPa | 0.0605
378.18 K, 7450 kPa | 0.0597
378.24 K, 10507 kPa | 0.064
378.25 K, 4395 kPa | 0.0667
378.25 K, 4400 kPa | 0.0667
378.25 K, 9919 kPa | 0.0632
378.25 K, 21005 kPa | 0.0736
378.26 K, 4380 kPa | 0.0657
378.26 K, 4390 kPa | 0.0664
378.26 K, 4410 kPa | 0.0667
378.26 K, 4420 kPa | 0.0661
378.26 K, 4430 kPa | 0.0655
378.26 K, 9506 kPa | 0.0627
378.27 K, 4370 kPa | 0.0645
378.27 K, 4440 kPa | 0.0645
378.27 K, 4450 kPa | 0.0639
378.27 K, 4460 kPa | 0.0633
378.27 K, 9008 kPa | 0.062
378.27 K, 18500 kPa | 0.0716
378.28 K, 4360 kPa | 0.0622
378.28 K, 4470 kPa | 0.0625
378.28 K, 4480 kPa | 0.0616
378.29 K, 4350 kPa | 0.0597
378.29 K, 4490 kPa | 0.0611
378.29 K, 4500 kPa | 0.0608
378.29 K, 4510 kPa | 0.0603
378.29 K, 4520 kPa | 0.0601
378.29 K, 4530 kPa | 0.0598
378.29 K, 8408 kPa | 0.0612
378.29 K, 16500 kPa | 0.0701
378.3 K, 4540 kPa | 0.0595
378.3 K, 4550 kPa | 0.0593
378.3 K, 4570 kPa | 0.0588
378.3 K, 4590 kPa | 0.0585
378.31 K, 4340 kPa | 0.057
378.31 K, 4620 kPa | 0.0581
378.31 K, 4626 kPa | 0.0578
378.31 K, 4650 kPa | 0.0573
378.31 K, 4688 kPa | 0.0571
378.31 K, 4730 kPa | 0.0569
378.31 K, 14505 kPa | 0.0683
378.32 K, 4770 kPa | 0.0567
378.33 K, 4330 kPa | 0.0547
378.33 K, 13441 kPa | 0.0674
378.34 K, 12420 kPa | 0.0663
378.35 K, 4320 kPa | 0.0524
378.36 K, 4310 kPa | 0.0506
378.36 K, 11376 kPa | 0.065
378.37 K, 10981 kPa | 0.0646
378.38 K, 4300 kPa | 0.0488
378.4 K, 4290 kPa | 0.0472
378.41 K, 4280 kPa | 0.0461
378.43 K, 4260 kPa | 0.0438
378.45 K, 4240 kPa | 0.0422
378.47 K, 4220 kPa | 0.0408
378.49 K, 4200 kPa | 0.0395
378.5 K, 4180 kPa | 0.0385
378.53 K, 4140 kPa | 0.0368
378.53 K, 4150 kPa | 0.0371
378.54 K, 4130 kPa | 0.0364
378.59 K, 4860 kPa | 0.0565
378.59 K, 4900 kPa | 0.0565
378.63 K, 440 kPa | 0.02017
378.74 K, 180 kPa | 0.02012
378.81 K, 4120 kPa | 0.036
378.83 K, 4090 kPa | 0.0351
378.85 K, 4050 kPa | 0.0339
378.9 K, 330 kPa | 0.02026
378.9 K, 3950 kPa | 0.0317
